This passage reports AC50, IC50 and EC50 results from ChEMBL document CHEMBL1201862, “PubChem BioAssay data set” (2004).

Assay [1] concerns the target T1, Adenosylmethionine-8-amino-7-oxononanoate aminotransferase (Mycobacterium tuberculosis, UniProt P9WQ81).
T1 sequence (P9WQ81 whole entry): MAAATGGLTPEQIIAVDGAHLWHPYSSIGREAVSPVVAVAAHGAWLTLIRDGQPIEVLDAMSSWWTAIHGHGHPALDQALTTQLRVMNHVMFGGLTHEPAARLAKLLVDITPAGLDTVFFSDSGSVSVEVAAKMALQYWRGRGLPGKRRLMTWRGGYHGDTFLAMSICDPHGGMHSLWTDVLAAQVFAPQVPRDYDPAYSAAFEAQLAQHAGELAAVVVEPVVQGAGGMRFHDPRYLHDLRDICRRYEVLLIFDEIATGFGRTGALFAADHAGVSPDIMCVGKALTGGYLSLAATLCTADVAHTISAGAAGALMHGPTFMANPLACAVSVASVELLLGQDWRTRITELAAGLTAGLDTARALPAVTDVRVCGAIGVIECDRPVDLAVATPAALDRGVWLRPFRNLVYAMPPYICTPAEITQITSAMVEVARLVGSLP
The assay can be described thus: Mycobacterium tuberculosis BioA enzyme inhibitor Measured in Biochemical System Using Plate Reader - 2163-02_Inhibitor_Dose_CherryPick_Activity. The class given is functional, Mycobacterium tuberculosis UT205.

Assay [2] deals with T2, Low molecular weight phosphotyrosine protein phosphatase (Homo sapiens, UniProt P24666).
T2 sequence (P24666 whole entry): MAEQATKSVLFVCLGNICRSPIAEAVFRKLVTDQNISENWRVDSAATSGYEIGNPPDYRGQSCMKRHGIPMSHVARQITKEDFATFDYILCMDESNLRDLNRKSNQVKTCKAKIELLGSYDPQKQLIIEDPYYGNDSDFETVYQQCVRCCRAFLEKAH
The format is functional. To be noted: read-out: IC50_Mean.

Assay [3] has as its target T3, DNA repair and recombination protein RAD54-like (Homo sapiens, UniProt Q92698).
T3 sequence (Q92698 whole entry): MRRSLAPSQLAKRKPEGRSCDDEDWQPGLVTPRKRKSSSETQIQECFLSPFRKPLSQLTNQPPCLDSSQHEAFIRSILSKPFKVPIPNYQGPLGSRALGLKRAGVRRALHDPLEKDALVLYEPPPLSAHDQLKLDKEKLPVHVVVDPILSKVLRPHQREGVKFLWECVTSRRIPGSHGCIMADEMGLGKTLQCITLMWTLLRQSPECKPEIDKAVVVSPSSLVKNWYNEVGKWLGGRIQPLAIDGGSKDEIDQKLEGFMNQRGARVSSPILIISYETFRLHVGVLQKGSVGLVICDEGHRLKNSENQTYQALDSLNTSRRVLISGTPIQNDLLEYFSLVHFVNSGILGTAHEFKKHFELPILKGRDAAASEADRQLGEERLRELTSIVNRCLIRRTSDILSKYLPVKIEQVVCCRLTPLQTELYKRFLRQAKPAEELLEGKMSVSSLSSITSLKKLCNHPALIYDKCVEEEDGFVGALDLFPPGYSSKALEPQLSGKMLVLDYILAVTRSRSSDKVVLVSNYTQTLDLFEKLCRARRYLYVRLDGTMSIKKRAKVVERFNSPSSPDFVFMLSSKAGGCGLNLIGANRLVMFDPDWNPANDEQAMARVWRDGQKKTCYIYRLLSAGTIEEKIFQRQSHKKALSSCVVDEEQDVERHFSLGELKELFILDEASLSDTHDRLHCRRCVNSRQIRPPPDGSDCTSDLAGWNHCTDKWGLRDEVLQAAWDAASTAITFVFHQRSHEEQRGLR
The assay can be described thus: RAD54 Holliday junction migration blockers – biochemical, fluorescence, cherry-picked samples, dose series, confirmation (AID 651657). The class given is functional.

Assay [4] concerns the target T4, Corticotropin-releasing factor receptor 2/Corticotropin-releasing factor-binding protein (Homo sapiens, UniProt P24387+Q13324).
T4 sequence (Q13324 whole entry): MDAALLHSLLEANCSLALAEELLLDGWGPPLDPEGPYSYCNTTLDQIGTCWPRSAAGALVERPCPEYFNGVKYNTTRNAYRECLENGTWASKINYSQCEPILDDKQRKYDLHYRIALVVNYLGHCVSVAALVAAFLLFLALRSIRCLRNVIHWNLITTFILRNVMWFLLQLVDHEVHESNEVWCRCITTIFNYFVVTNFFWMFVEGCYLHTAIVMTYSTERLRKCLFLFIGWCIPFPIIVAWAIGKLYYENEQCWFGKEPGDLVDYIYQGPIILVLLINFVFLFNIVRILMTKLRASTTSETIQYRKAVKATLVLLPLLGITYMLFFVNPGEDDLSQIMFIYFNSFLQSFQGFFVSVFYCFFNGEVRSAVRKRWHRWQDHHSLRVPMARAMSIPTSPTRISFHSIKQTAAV
T4 sequence (P24387 whole entry): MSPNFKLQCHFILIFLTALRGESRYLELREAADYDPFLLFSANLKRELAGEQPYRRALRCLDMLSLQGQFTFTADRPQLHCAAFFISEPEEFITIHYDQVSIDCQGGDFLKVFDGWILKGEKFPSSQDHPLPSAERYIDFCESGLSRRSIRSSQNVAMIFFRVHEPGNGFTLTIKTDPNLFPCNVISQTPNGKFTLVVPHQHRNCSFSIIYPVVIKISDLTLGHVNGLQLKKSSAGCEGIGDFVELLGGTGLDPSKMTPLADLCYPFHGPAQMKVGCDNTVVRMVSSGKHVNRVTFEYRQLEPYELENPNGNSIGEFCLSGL
The experiment in a line: activators of CRF receptor 2 with binding protein – uHTS hits, confirmation (AID 602473). The class given is functional. To be noted: read-out: EC50_Mean.

Assay [5] can be described thus: blockers of CRF-binding protein–CRF-R2 complex – cell-based, uHTS hits, 384-well, dose response (AID 651639). The class given is functional, Homo sapiens. The conditions noted are these: read-out: IC50_Mean.
Assay [6] has as its target T4, Corticotropin-releasing factor receptor 2/Corticotropin-releasing factor-binding protein. The assay can be described thus: Dose Response confirmation of uHTS hits for small molecule antagonists of the CRF-binding protein and CRF-R2 receptor complex. The class given is functional. To be noted: read-out: IC50_Mean.
Assay [7] addresses T5, Long-chain-fatty-acid--AMP ligase FadD28 (Mycobacterium tuberculosis, UniProt P9WQ59).
T5 sequence (P9WQ59 whole entry): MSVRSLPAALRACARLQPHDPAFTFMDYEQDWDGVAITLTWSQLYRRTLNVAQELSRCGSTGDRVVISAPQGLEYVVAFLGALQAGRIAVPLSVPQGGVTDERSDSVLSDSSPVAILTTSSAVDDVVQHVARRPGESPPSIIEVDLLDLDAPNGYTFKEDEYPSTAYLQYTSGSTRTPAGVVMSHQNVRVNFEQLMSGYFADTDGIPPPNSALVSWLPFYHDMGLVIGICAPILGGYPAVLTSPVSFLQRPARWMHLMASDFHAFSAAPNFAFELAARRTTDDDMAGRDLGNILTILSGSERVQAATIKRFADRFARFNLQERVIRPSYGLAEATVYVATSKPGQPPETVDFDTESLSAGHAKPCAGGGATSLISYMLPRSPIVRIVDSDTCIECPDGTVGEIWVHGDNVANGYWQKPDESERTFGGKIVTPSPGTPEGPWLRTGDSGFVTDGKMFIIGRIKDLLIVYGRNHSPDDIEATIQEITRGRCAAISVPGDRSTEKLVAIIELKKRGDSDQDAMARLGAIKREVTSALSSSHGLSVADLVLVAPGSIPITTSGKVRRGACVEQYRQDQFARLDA
The assay can be described thus: Fluorescence polarization aasay to screen for inhibitors that compete for the binding of FadD28 to a bisubstrate Measured in Biochemical System Using Plate Reader - 2147-01_Inhibitor_Dose_CherryPick_Activity. The format is functional, Mycobacterium tuberculosis H37Rv. Background: Fluorescence polarisation rises when a labelled molecule tumbles more slowly, as on binding a larger partner.

For assay [8], the target named is T6, Fructose-bisphosphate aldolase (Mycobacterium tuberculosis, UniProt P9WQA3).
T6 sequence (P9WQA3 whole entry): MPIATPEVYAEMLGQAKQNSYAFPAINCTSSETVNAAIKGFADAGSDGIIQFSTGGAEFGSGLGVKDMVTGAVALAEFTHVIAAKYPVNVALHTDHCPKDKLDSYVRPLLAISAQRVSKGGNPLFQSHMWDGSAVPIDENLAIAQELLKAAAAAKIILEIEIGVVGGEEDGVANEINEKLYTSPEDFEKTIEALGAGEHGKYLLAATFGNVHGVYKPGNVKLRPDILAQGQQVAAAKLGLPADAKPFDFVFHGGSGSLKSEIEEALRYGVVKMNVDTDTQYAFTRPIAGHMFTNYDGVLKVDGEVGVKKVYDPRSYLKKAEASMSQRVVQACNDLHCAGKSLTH
The experiment in a line: Fluorescence-based biochemical high throughput dose response assay for inhibitors of the fructose-bisphosphate aldolase (FBA) of M. tuberculosis. The format is functional.

Assay [9] concerns the target T7, Sentrin-specific protease 1 (Homo sapiens, UniProt Q9P0U3).
T7 sequence (Q9P0U3 whole entry): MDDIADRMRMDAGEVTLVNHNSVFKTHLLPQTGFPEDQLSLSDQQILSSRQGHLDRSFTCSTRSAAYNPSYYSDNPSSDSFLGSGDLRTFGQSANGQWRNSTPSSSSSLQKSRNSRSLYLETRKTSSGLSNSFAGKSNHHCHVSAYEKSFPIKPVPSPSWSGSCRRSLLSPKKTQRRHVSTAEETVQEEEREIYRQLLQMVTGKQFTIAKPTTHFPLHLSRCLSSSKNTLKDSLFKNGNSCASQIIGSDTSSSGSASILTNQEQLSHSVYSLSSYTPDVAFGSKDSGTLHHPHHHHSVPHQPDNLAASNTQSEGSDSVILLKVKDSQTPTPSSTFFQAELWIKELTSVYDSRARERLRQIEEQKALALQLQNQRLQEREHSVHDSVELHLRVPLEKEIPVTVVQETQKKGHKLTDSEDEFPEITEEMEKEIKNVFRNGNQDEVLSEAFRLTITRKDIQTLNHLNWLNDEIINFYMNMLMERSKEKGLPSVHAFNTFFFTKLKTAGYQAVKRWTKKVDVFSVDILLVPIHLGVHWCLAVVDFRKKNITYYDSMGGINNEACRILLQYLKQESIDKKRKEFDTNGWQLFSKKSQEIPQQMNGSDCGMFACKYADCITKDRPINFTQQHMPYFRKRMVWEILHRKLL
The assay can be described thus: SENP1 catalytic domain blockers, concentration series – biochemical, kinetic FRET, dose response (AID 651697). To be noted: read-out: IC50_Mean. The class given is functional.

Assay [10] addresses T7, Sentrin-specific protease 1. The assay can be described thus: Dose response confirmation of small molecule inhibitors of the catalytic domain of the SUMO protease, SENP1 in a FRET assay. The class given is functional. To be noted: read-out: IC50_Mean.
Assay [11] addresses T8, Mannose-6-phosphate isomerase (Homo sapiens, UniProt P34949).
T8 sequence (P34949 whole entry): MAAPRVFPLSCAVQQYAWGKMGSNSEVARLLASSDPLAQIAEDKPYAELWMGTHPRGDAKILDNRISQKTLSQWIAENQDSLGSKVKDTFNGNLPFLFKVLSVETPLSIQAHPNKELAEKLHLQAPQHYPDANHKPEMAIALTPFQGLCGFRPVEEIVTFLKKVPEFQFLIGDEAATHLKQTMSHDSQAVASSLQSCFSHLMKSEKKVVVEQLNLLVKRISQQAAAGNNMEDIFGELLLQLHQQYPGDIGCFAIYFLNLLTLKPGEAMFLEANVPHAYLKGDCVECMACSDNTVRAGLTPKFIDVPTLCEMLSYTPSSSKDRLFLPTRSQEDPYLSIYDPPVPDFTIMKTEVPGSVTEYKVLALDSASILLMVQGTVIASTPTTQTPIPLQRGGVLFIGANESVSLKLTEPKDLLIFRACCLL
The assay can be described thus: MPI inhibition at elevated mannose 6-phosphate – biochemical, fluorescence intensity, high mannose 6-phosphate, primary screen (AID 1220).

The target in assay [12] is Heat shock protein HSP 90-alpha (Homo sapiens, UniProt P07900). The class given is functional, organism-based.
For a further assay, the system named is Cryptococcus neoformans. The assay can be described thus: PubChem AID 686997. The format is functional, organism-based. The conditions noted are these: Cryptococcus neoformans.

Calls of active or inactive are those of the source.

Usually AC50 stands for the concentration giving half of the maximal activity seen.

Regarding `Oc1nc(N2CCN(Cc3ccc4c(c3)OCO4)CC2)nc2c1CCCC2`, in assay [1], the AC50 is 0.921 µM (active).
Turning to `O=c1c2ccccc2nc2sc(Nc3cccc(Cl)c3)nn12`, in assay [2], the IC50 was 14.5 µM (active).
With `CCOC(=O)c1c(C)n(C)c2ccc(OCC(O)CN3CCN(C)CC3)cc12` (configuration not stated), the concentration at half-maximal activity (AC50) in [3] is 38.9 µM (active).
For the compound `CN(Cc1ccc([N+](=O)[O-])cc1)c1ccccc1`, in [4], the EC50 was > 53 µM (inactive). Moreover, the IC50 in [5] is 7.06 µM (active); in assay [6] it was 2.92 µM (active). Further, in [7], the AC50 was > 100 µM (inactive).
Take `Nc1nnc(/C=C/c2ccccc2Cl)s1`: in [8], the IC50 was 1.59 µM (active).
For `O=c1[nH]c2ccccc2n1C1CCN(Cc2ccc(-c3nc4cc5[nH]cnc5cc4nc3-c3ccccc3)cc2)CC1`, the IC50 in assay [2] was 7.43 µM (active).
Regarding `CCCN(CCC)C(=O)Cn1c(=O)c2sccc2n2c(=S)sc(-c3ccccc3)c12`, the IC50 in [9] was 73.8 µM (inactive); in assay [10], 12.6 µM (active).
On to `C/C=C/c1ccc2c(c1)O[C@@H](CN(C)C(=O)Nc1ccccc1)[C@H](C)CN([C@H](C)CO)S2(=O)=O`, for which, in assay [1], the AC50 is 5.6 µM (active).
On to `Cc1ccc(-c2csc3nc(-c4ccncc4)[nH]c(=O)c23)cc1`, for which the results for the IC50 in assay [9] and in assay [10] were 69.3 µM (inactive) and 62 µM (inactive), respectively.
With `Oc1ccccc1Oc1c(F)c(F)nc(N2CCCC2)c1F`, the IC50 in [11] is listed as > 50 µM (not active). Moreover, the AC50 in assay [7] was 42.5 µM (active).
As for `Oc1ccc(C=NN=C2c3ccccc3-c3ccccc32)c(O)c1`, the AC50 in assay [12] was 12.1 µM (active). Besides, the IC50 in [9] is 12.5 µM (active); in [10] it was 6.06 µM (active).
Consider `Cn1nnc2cc(C(=O)Nc3cccnc3)ccc21`, for which the half-maximal activity concentration (AC50) in assay [1] is 4.17 µM (active).
In the case of `Cc1cc(C)c2nc(N3CCN(C(=O)c4cccs4)CC3)sc2c1`, the AC50 with Cryptococcus neoformans was > 70 µM (inactive).
Consider `CSc1nc(SCC(N)=O)c2c3c(sc2n1)CN(C)CC3`, for which the AC50 in assay [3] is 17.2 µM (active).
